Experiment: Hot solution temperature: homogeneous solution of active with excipient or second active
Format: physicochemical
Description: Numerous materials may act to form solutions of agrochemicals at elevated temperature. The solubility of MCPA, 2,4-D) and mecoprop with a range of common excipients was assessed at elevated temperature. To establish the melting behaviour of the individual actives, each active (1.25 g) was weighed into a 40 mL vial and heated gradually using a hotplate and Asynt heating insert until full melted, and the melting range was noted. […] To establish hot solvent behaviour, a range of excipients were weighed into 40 mL vials (0.676 g) with each chosen active (1.25 g). The mixtures were then heated gradually until a fully homogeneous solution was observed and the temperature was noted as described above. Additionally, the potential for agrochemicals to act as solvents for a second agrochemical at elevated temperature was also studied by combining the active ingredients in a ratio of 1.85:1 active:active ‘solvent’ following the same procedure as described above. For example, in a mixture where the first active was MCPA (1.25 g) and the second was mecoprop (0.676 g) both actives were added to a 40 mL vial and heated following the procedure detailed above. Where a homogeneous phase is observed below the measured melting point of the study active ingredient, a hot solution is considered to have been formed and the excipient is deemed to act as a solvent at elevated temperature.
Where the “solvent” is listed as “None”, the temperature stated represents the formation of a homogeneous melt.

O=C(O)COc1ccc(Cl)cc1Cl [2,4-D, 2,4-dichlorophenoxyacetic acid]
Solution temp range (° C.) (2nd active Dichloroprop-P as solvent, ratio 1.85:1): 130-132 °C
Solution temp range (° C.) (2nd active MCPA as solvent, ratio 1.85:1): 140-142 °C
Solution temp range (° C.) (2nd active Mecoprop as solvent, ratio 1.85:1 active:active solvent): 130-131 °C
temperature range where homogeneous solutions formed (° C.) (solvent 1,2-Propanediol): 110-112 °C
temperature range where homogeneous solutions formed (° C.) (solvent Altox 4894): 121-125 °C
temperature range where homogeneous solutions formed (° C.) (solvent Altox 4912): 138-140 °C
temperature range where homogeneous solutions formed (° C.) (solvent Altox 4913): 116-120 °C
temperature range where homogeneous solutions formed (° C.) (solvent Atlas G5000): 129-131 °C
temperature range where homogeneous solutions formed (° C.) (solvent Atlox 4915): 134-137 °C
temperature range where homogeneous solutions formed (° C.) (solvent Atlox 4916): 140-141 °C
temperature range where homogeneous solutions formed (° C.) (solvent Atplus 245): 123-126 °C
temperature range where homogeneous solutions formed (° C.) (solvent Atplus PFA): 127-130 °C
temperature range where homogeneous solutions formed (° C.) (solvent Atplus UEP): 132-135 °C
temperature range where homogeneous solutions formed (° C.) (solvent Crodamol AB): 136-138 °C
temperature range where homogeneous solutions formed (° C.) (solvent Crodamol GTCC): 138-140 °C
temperature range where homogeneous solutions formed (° C.) (solvent Dipropylene glycol dimethyl ether): 114-116 °C
temperature range where homogeneous solutions formed (° C.) (solvent Genapol X020): 118-121 °C
temperature range where homogeneous solutions formed (° C.) (solvent Genapol X050): 120-123 °C
temperature range where homogeneous solutions formed (° C.) (solvent Genapol X060): 118-122 °C
temperature range where homogeneous solutions formed (° C.) (solvent Genapol X080): 118-121 °C
temperature range where homogeneous solutions formed (° C.) (solvent Glycerol, 1.25 g active, 0.676 g excipient): 116-118 °C
temperature range where homogeneous solutions formed (° C.) (solvent Multiwet MO85): 140-143 °C
temperature range where homogeneous solutions formed (° C.) (solvent PEG 400): 122-123 °C
temperature range where homogeneous solutions formed (° C.) (solvent PEG 1000): 124-126 °C
temperature range where homogeneous solutions formed (° C.) (solvent PEG 4000): 134-136 °C
temperature range where homogeneous solutions formed (° C.) (solvent Pluronic F68): 137-140 °C
temperature range where homogeneous solutions formed (° C.) (solvent Pluronic F127): 137-140 °C
temperature range where homogeneous solutions formed (° C.) (solvent Propylene glycol): 110-112 °C
temperature range where homogeneous solutions formed (° C.) (solvent Synperonic PE/L31): 129-130 °C
temperature range where homogeneous solutions formed (° C.) (solvent Synperonic PE/L64): 132-135 °C
temperature range where homogeneous solutions formed (° C.) (solvent Synprolam 35X15): 123-126 °C
temperature range where homogeneous solutions formed (° C.) (solvent Tween 22): 120-124 °C
temperature range where homogeneous solutions formed (° C.) (solvent Tween 23): 120-124 °C
temperature range where homogeneous solutions formed (° C.) (solvent Tween 24): 120-124 °C

Source: US20250344693A1, “HERBICIDE SUSPENSION CONCENTRATES AND METHOD FOR THEIR PREPARATION” (NUFARM AUSTRALIA LIMITED, priority 2022, published 2025)
